From patent US12029730B2, “Pharmaceutical composition for preventing or treating cancer, containing N-1H-benzimidazol-2-yl-3-(1H-pyrrole-1-yl)benzamide as active ingredient” (KOREA INSTITUTE OF RADIOLOGICAL & MEDICAL SCIENCES, priority 2018, dated 2024)

Key:
Type in all cases: cell-based, human
MCF7 cells [1] = experiment: Tumorsphere formation assay; details: MCF7, cultured 15 days, compared to DMSO, FIG. 8
Description: A tumorsphere formation assay was performed in order to determine whether the selected MKI-1 can effectively reduce the formation of tumorsphere in cancer cells, Breast cancer cells MCF7 (2500-10000 cells) was suspended in serum-free DMEM/F12 (weIGENE) containing 1% penicillin, B-27 (1:50; invitrogen), 20 ng/mL epidermal cell growth factor (R&D Systems) and 20 ng/mL fibroblast growth factor (R&D Systems) and cultured on plates with low adhesion rate. After 24 hours, the cells were treated with MASTL kinase inhibitors (AT13148, MKI-1 and GKI-1), respectively, and cultured for 15 days, and then the diameter of the tumorsphere was measured and quantified, which was shown in FIG. 8.

MCF7 cells [2] = experiment: Colony formation analysis; details: MCF7, cultured 15 days, compared to DMSO, FIG. 7
Description: Colony formation analysis was performed to confirm whether the selected MKI-1 can effectively kill cancer cells. First, breast cancer cells MCF7 (500-1000 cells) were cultured in a 60 mm culture plate, and after 24 hours, it was treated with MASTL kinase inhibitors (AT13148, MKI-1 and GKI-1), respectively and cultured for 15 days. Cells were fixed and stained with […] to which methanol was added to quantify the number of colonies, which was shown in FIG. 7.

BT549 cells = experiment: WST-8 cell viability assay, breast cancer cell line BT549; details: 3.70, 11.11, 33.33 and 100 μM, FIG. 6
Description: (§1) In addition, the cell line in this experiment was distributed from ATCC (American Type Culture Collection; Manassas, VA). Human-derived tumor cell lines, breast cancer cell lines MCF7 and T47D was cultured in DMEM medium containing 10% fetal bovine serum (FBS; HyClone, South Logan, UT) and 1% penicillin/streptomycin (Corning, NY, USA) at 37° C. and 5% CO2, and the BT549 breast cancer cell line was cultured in RPMI 1640 (Welgene, Daegu, Korea) as a medium used under the same conditions. Human-derived normal cell line MCF10A was cultured in DMEM/F12 (Invitrogen) medium containing 5% horse serum (Invitrogen), 1% penicillin/streptomycin, 20 ng/ml EGF (Peprotech, London, UK), […] (Sigma-Aldrich, MO, USA), 100 ng/ml cholera toxin (Cholera Toxin, Sigma-Aldrich) and 10 μg Insulin (Sigma-Aldrich) at 37° C. and 5% CO2.
(§2) In order to confirm whether the selected MKI-1 can kill only cancer cells, an experiment was performed by treating with MKI-1 and measuring whether the cell viability of breast cancer cell lines and normal cell lines was changed. WST-8 analysis (Cyto X™ cell viability assay kit, LPS solution, Daejeon, Korea) was performed according to the manufacturer's protocol. Cancer cells MCF7 and BT549 and normal cell line MCF10A cells were inoculated into a 96-well plate, cultured for 24 hours, and then treated with MASTL kinase inhibitors at various concentrations (3.70, 11.11, 33.33 and 100 μM). Thereafter, the absorbance was measured at 450 nm using a Versamax micro plate reader (Molecular Devices, CA, USA), and the results were shown in FIG. 6.

AKT = experiment: Western blotting of AKT and GSK-3 phosphorylation in MCF7 cells; details: western blot, FIG. 5
Description: 20 μg of protein was separated by SDS-PAGE electrophoresis and transferred to a PVDF membrane, and the following specific antibodies were used: rabbit polyclonal antibody MASTL (Abgent); phospho-ENSA (Ser67)/ARPP19 (Ser62) (#5240), ENSA (#11915S), cleaved PARP (Asp214) (#9541), AKT (#9272), phospho-AKT (ser473) (#9271), phospho-GSK-3α/β (Ser21/9) (#9331), phospho-p70S6K (The 288) (#9205) and phospho-Chk2 (Thr68) (#2661; Cell Signaling Technology, MA); p70S6K (sc-230; Santa Cruz Biotechnology, CA, USA), phospho-H3 (S10) (06-570, Merck, NJ); mouse monoclonal antibody caspase-2 (#2224S). In addition, mouse […] antibody β-actin (C4; Santa Cruz Biotechnology, CA, USA) was used as a loading control, it was washed with 1×PBS/0.1% Tween 20, and the binding protein was detected using HRP-binding secondary antibody and improved chemiluminescence detection system. The remaining conditions of Western blotting were the same as in Example 3, and the image of the band was obtained by Amersham Imager 600 system (GE Healthcare Life Science) or X-Ray film (AG, HealthCare, SC, USA) and it was shown in FIG. 5.

MCF7 cells [3] = experiment: WST-8 cell viability assay, breast cancer cell line MCF7; details: 3.70, 11.11, 33.33 and 100 μM, FIG. 6
Description: as §1
(§3) Briefly, MCF7 and MCF10A cells were seeded into 96-well plates, incubated for 24 hours, and then was treated with 42 inhibitor candidates. Among the compounds, the multi-AGC kinase inhibitor AT13148 was used as a positive control. Thereafter, the absorbance was measured at 450 nm using a Versamax microplate reader (Molecular Devices, CA, USA), and the results of the experiment were shown in FIG. 1A.
as §2

MCF7 cells [4] = experiment: 3D culture spheroid formation; details: MCF7 3D culture, AT13148 2 μM, GKI-1 10 μM, MKI-1 10 μM, FIG. 9
Description: 3D culture was performed according to the protocol of the manufacturing company TheWell Bioscience. It was inoculated into 24-wells containing a DMEM mixture containing 10,000 MCF7 cells in an MCF7 cell:hydrogel solution in a ratio of 1:3 (v/v) and VitroGel™ 3D-RGD diluted with 0.1% PBS in a ratio of 1:3 (v/v) of a hydrogel:diH2O. Thereafter, incubation was performed at 37° C. for 15 minutes to stabilize the VitroGel 3D-RGD hydrogel. To cover the hydrogel, the same volume of DMEM as the hydrogel was added, and the next day, the hydrogel was treated with a DMSO base drug containing DMSO, AT13148 (2 μM), GKI-1 (10 μM) and MKI-1 (10 μM). The medium was exchanged every 2 days for 14 to 20 days.

MCF10A cells = experiment: WST-8 cell viability assay, normal cell line MCF10A; details: 3.70, 11.11, 33.33 and 100 μM, FIG. 6
Description: as §1, §3, §2

NC[C@@](O)(c1ccc(Cl)cc1)c1ccc(-c2cn[nH]c2)cc1 [AT13148, reference compound]
tumorsphere diameter (MCF7 cells [1]): significantly decreased | number of cancer cell colonies (MCF7 cells [2]): significantly reduced | cell viability, BT549 (BT549 cells): drastically reduced cell viability | activation of AKT / phosphorylated GSK-3 (AKT): strongly inhibited the activation of AKT | cell viability, MCF7 (MCF7 cells [3]): drastically reduced cell viability | size of cancer cell spheroid (MCF7 cells [4]): significantly reduced | cell viability, normal cell line MCF10A (MCF10A cells): drastically reduced cell viability
